Columns and labels:
Human 5-HT6 receptor = target: T1, Human 5-HT6 receptor (Homo sapiens, UniProt P50406); assay: Nova Screen binding assay for human 5-HT6 receptor ([3H]LSD); settings: Human recombinant receptor expressed in HEK-293 cells; [3H]LSD 1.5 nM; 60 minutes at 37° C.
T1 construct: host or cells: HEK-293
Experimental: Nova Screen Binding Assay for Human 5-HT6 Receptor
Pharmacological data Compounds can be tested according to the following the procedures.
Receptor source: Human recombinant expressed in HEK-293 cells
Radioligand: [^3H]LSD (60-80 Ci/mmol)
Final ligand concentration—[1.5 nM]
Non-specific determinant: Methiothepin mesylate—[0.1 μM]
Reference compound: Methiothepin mesylate
Positive control: Methiothepin mesylate
Incubation conditions: Reactions were carried out in 50 mM TRIS HCl (pH 7.4) containing 10 mM MgCl2, 0.5 mM EDTA for 60 minutes at 37° C. The reaction was terminated by rapid vacuum filtration onto glass fiber filters. Radioactivity trapped onto the filters was determined and compared to control values in order to ascertain any interactions of test compound(s) with the cloned serotonin-5HT6 binding site.
Mol. Pharmacol. (43): 320-327 (1993).

T1 sequence (P50406 whole entry): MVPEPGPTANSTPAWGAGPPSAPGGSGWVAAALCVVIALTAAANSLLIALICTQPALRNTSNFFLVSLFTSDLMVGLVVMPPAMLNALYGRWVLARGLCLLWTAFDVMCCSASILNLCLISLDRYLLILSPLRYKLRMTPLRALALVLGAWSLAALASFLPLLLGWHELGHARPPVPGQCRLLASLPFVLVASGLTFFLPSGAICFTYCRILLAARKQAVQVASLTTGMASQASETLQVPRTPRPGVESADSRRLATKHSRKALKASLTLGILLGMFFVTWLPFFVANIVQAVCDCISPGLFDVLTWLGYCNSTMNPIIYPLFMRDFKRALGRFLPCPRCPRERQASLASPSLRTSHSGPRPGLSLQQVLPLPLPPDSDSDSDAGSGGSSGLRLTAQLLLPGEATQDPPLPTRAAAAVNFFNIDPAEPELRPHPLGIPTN

Row | Compound | melting point [°C] | IC50 (Human 5-HT6 receptor) [nM] | Ki (Human 5-HT6 receptor) [nM]
1 | CN(C)C1CCc2c(c3cc(Br)ccc3n2S(=O)(=O)c2cccc(Cl)c2Cl)C1 (stereo not drawn) [Example 39, [6-Bromo-9-(2,3-dichlorobenzenesulphonyl)-2,3,4,9-tetrahydro-1H-carbazol-3-yl]dimethylamine] | 189 to 192 |  | 
2 | Cc1ccc(S(=O)(=O)n2c3c(c4cc(F)ccc42)CC(N(C)C)CC3)cc1 (stereo not drawn) [Example 22, [6-Fluoro-9-(4-methylbenzenesulfonyl)-2,3,4,9-tetrahydro-1H-carbazol-3-yl]dimethylamine] | 148.8 to 153 | 64.3 | 32.4
3 | CN(C)C1CCc2c(c3cc(Br)ccc3n2S(=O)(=O)c2ccccc2Br)C1 (stereo not drawn) [Example 14, [6-Bromo-9-(2-bromobenzenesulphonyl)-2,3,4,9-tetrahydro-1H-carbazol-3-yl]dimethylamine] | 158.78 to 161.04 |  | 
4 | CN(C)C1CCc2c(c3cc(Br)ccc3n2S(=O)(=O)c2ccc(F)cc2)C1 (stereo not drawn) [Example 11, [6-Bromo-9-(4-fluorobenzenesulphonyl)-2,3,4,9-tetrahydro-1H-carbazol-3-yl]dimethylamine] | 158.1 to 160 | 20.2 | 9.42
5 | COc1ccc2c(c1)c1c(n2S(=O)(=O)c2ccc(F)cc2)CCC(N(C)C)C1 (stereo not drawn) [Example 30, [6-Methoxy-9-(4-fluorobenzenesulfonyl)-2,3,4,9-tetrahydro-1H-carbazol-3-yl]dimethylamine] | 160.7 to 163.4 | 52.3 | 24.3
6 | CSc1ccc2c(c1)c1c(n2S(=O)(=O)c2ccc(F)cc2)CCC(N(C)C)C1 (stereo not drawn) [Example 35] | 148.9 to 156.1 | 47.1 | 24.9
7 | COc1ccc2c(c1)c1c(n2S(=O)(=O)c2ccc(C)cc2)CCC(N(C)C)C1 (stereo not drawn) [Example 27, [6-Methoxy-9-(4-methylbenzenesulfonyl)-2,3,4,9-tetrahydro-1H-carbazol-3-yl]dimethylamine] | 131.8 to 140 | 11.7 | 5.89
8 | COc1ccc2c(c1)c1c(n2S(=O)(=O)c2cccc(C(F)(F)F)c2)CCC(N(C)C)C1 (stereo not drawn) [Example 31, [6-Methoxy-9-(3-trifluoromethylbenzenesulfonyl)-2,3,4,9-tetrahydro-1H-carbazol-3-yl]dimethylamine] | 144 to 146 |  | 

Results, then the molecule that gave them:

Row | melting point [°C] | IC50 (Human 5-HT6 receptor) [nM] | Ki (Human 5-HT6 receptor) [nM] | Compound
9 | 150 to 155 |  |  | CN(C)C1CCc2c(c3cc(Cl)ccc3n2S(=O)(=O)c2ccc(F)cc2)C1 (stereo not drawn) [Example 20, [6-Chloro-9-(4-fluorobenzenesulfonyl)-2,3,4,9-tetrahydro-1H-carbazol-3-yl]dimethylamine]
10 | 147.5 to 151.2 | 63.5 | 32.8 | CN(C)C1CCc2c(c3cc(F)ccc3n2S(=O)(=O)c2ccc(F)cc2)C1 (stereo not drawn) [Example 25, [6-Fluoro-9-(4-fluorobenzenesulfonyl)-2,3,4,9-tetrahydro-1H-carbazol-3-yl]dimethylamine]
11 |  | 10.8 | 5.44 | COc1ccc2c(c1)c1c(n2S(=O)(=O)c2ccccc2)CCC(N(C)C)C1 (stereo not drawn) [Example 26, [6-Methoxy-9-benzenesulfonyl-2,3,4,9-tetrahydro-1H-carbazol-3-yl]dimethylamine]
12 | 130.2 to 132.8 | 27 | 12.5 | CN(C)C1CCc2c(c3ccccc3n2S(=O)(=O)c2ccc(F)cc2)C1 (stereo not drawn) [Example 3, 9-[(4-Fluorobenzenesulphonyl)-2,3,4,9-tetrahydro-1H-carbazol-3-yl]dimethylamine]
13 | 150 to 155 |  |  | CN(C)C1CCc2c(c3cc(Cl)ccc3n2S(=O)(=O)c2ccccc2)C1 (stereo not drawn)
14 | 170.6 to 174.1 | 99.7 | 43.5 | CN(C)C1CCc2c(c3cc(F)ccc3n2S(=O)(=O)c2ccc(Br)cc2)C1 (stereo not drawn) [Example 24, [6-Fluoro-9-(4-bromobenzenesulfonyl)-2,3,4,9-tetrahydro-1H-carbazol-3-yl]dimethylamine]
15 | 127.7 to 130.3 | 30.5 | 15.7 | CN(C)C1CCc2c(c3cc(F)ccc3n2S(=O)(=O)c2ccccc2)C1 (stereo not drawn) [Example 21, [6-Fluoro-9-benzenesulfonyl-2,3,4,9-tetrahydro-1H-carbazol-3-yl]dimethylamine]
16 | 152.75 to 154.98 |  |  | CC(C)c1ccc(S(=O)(=O)n2c3c(c4cc(Br)ccc42)CC(N(C)C)CC3)cc1 (stereo not drawn)
17 | 95.4 to 103.8 | 33.4 | 15.5 | CC(C)c1ccc(S(=O)(=O)n2c3c(c4cc(F)ccc42)CC(N(C)C)CC3)cc1 (stereo not drawn) [Example 23, [6-Fluoro-9-(4-isopropylbenzenesulfonyl)-2,3,4,9-tetrahydro-1H-carbazol-3-yl]dimethylamine]
18 | 105.2 to 115 | 26.1 | 13.8 | CSc1ccc2c(c1)c1c(n2S(=O)(=O)c2ccc(C)cc2)CCC(N(C)C)C1 (stereo not drawn) [Example 33, [6-Methylthio-9-(4-methylbenzenesulfonyl)-2,3,4,9-tetrahydro-1H-carbazol-3-yl]dimethylamine]
19 | 130 to 138 |  |  | Cc1ccc(S(=O)(=O)n2c3c(c4cc(Cl)ccc42)CC(N(C)C)CC3)cc1 (stereo not drawn)
20 | 173.2 to 173.8 | 28.9 | 15.1 | COc1ccc2c(c1)c1c(n2S(=O)(=O)c2ccc(Br)cc2)CCC(N(C)C)C1 (stereo not drawn) [Example 29, [6-Methoxy-9-(4-bromobenzenesulfonyl)-2,3,4,9-tetrahydro-1H-carbazol-3-yl]dimethylamine]

Reference: patent US8143303B2, “Carbazole derivatives as functional 5-HT6 ligands” (Suven Life Sciences Limited, priority 2005, dated 2012)
